In ChEMBL document CHEMBL1156829 (Proc Natl Acad Sci U S A, 2008):

Assays:
Plasmodium falciparum [1] = experiment: NOVARTIS: Inhibition of Plasmodium falciparum 3D7 (drug-susceptible) proliferation in erythrocyte-based infection assay; assay type: functional, organism-based; settings: Plasmodium falciparum, 3D7
Plasmodium falciparum [2] = experiment: NOVARTIS: Inhibition of Plasmodium falciparum W2 (drug-resistant) proliferation in erythrocyte-based infection assay; assay type: functional, organism-based; settings: Plasmodium falciparum, W2; read-out: EC50
[3] = NOVARTIS: Cytotoxicity against human hepatocellular carcinoma cell line (Huh7); assay type: toxicity, cell-based, Huh-7; settings: Huh7 cells (hepatocellular carcinoma cell line)

Compound	EC50 (Plasmodium falciparum [1])	EC50 (Plasmodium falciparum [2])	CC50 [3]
CCOC(=O)C1=C(C)NC2=C(C(=O)C(C(=O)OC)C(C)C2)C1c1cc(Br)c(OC)c(OCC)c1 (stereo not drawn)	0.7 µM	0.0727 µM	> 100 µM
O=C(Nc1cccc(N2CCC(NCC3CCCCC3)CC2)c1)C1CC1	3.68 µM	1.18 µM	> 100 µM
Cc1cc(Cl)c(S(=O)(=O)N2CCCC2)cc1OCC(=O)NC1CCCCC1	0.0956 µM	0.141 µM	> 100 µM
CCCCCCCC[n+]1c(C)n(C)c2cc(Cl)c(Cl)cc21	0.527 µM	0.356 µM	40.5 µM
CCC(C)(C)c1ccc(Oc2ccc(NC(=O)c3ccc([N+](=O)[O-])o3)cc2)cc1	7.67 µM	6.51 µM	57.6 µM
CCCCOc1ccc(N2C(N)=NC(N)=NC2(C)C)cc1	0.155 µM	> 1.25 µM	> 10 µM
Cc1ccn2c(NC(C)(C)CC(C)(C)C)c(-c3ccccc3OC(=O)c3cccc(F)c3)nc2c1	0.581 µM	< 0.00837 µM	> 10 µM
COc1ccc(/C=C2\N=C(c3ccc(Cl)cc3)N(c3ccccc3)C2=O)cc1OC	> 1.25 µM	> 1.15 µM	> 10 µM
C#CC(C)(C)NC(=O)c1ccc(-c2ccc(CC)cc2)cc1	3.03 µM	1.97 µM	> 100 µM
CC(C)CNC(=O)c1cc(NC(=O)c2cccs2)ccc1N1CCc2ccccc2C1	0.349 µM	0.0327 µM	0.893 µM
Oc1ccc(-c2ccc(F)cc2)cc1CNCCN1CCOCC1	0.901 µM	0.681 µM	> 10 µM
CN1CCN(Nc2ccnc3cc4ccccc4cc23)CC1	0.104 µM	0.246 µM	> 10 µM
CCc1ccc(-n2c(C(CC)N(CCc3ccccc3)C(=O)c3cc(OC)cc(OC)c3)nc3ccccc3c2=O)cc1 (stereo not drawn)	> 0.547 µM	0.291 µM	> 10 µM
COc1cc2ccccc2cc1C(=O)NCCOC12CC3CC(CC(C3)C1)C2	3.5 µM	1.15 µM	> 100 µM
CN(C)CCNc1ccc2ncc(-c3ccsc3)n2n1	> 1.25 µM	> 0.846 µM	> 10 µM
O=C(Cc1cccs1)N1CCN(c2ccccn2)CC1	3.95 µM	1.93 µM	> 100 µM
CC(=O)N(Cc1ccc2c(c1)OCO2)C1CC(=O)N(c2ccccc2)C1=O (stereo not drawn)	> 1.25 µM	> 0.381 µM	> 10 µM
Cc1cc(C)n(-c2ccc(NC(=O)C3CCN(Cc4ccc5nonc5c4)CC3)cc2)n1	0.43 µM	0.412 µM	> 83.2 µM
CCc1ccc(C(=O)C[n+]2cc(-c3ccc(C)cc3)n3c2CCC3)cc1	0.764 µM	0.333 µM	32.7 µM
CC1(C)C2C[C@@H](COC(=O)NC(=O)c3ccccc3)[C@]3(C)[C@H](C21)C3(Cl)Cl (stereo partly drawn)	1.14 µM	0.951 µM	> 11.2 µM
CCOC(=O)c1ccc(NC(=O)c2cc(-c3ccccc3)nc3ccc(C)cc23)cc1	> 12.5 µM	2.1 µM	> 100 µM
COc1cc(CNNc2nc3cc(Cl)ccc3[nH]2)cc(OC)c1OC	0.307 µM	0.541 µM	> 10 µM
O=C(Nc1cc(C(F)(F)F)cc(C(F)(F)F)c1)Nc1ccc2nnsc2c1	6.37 µM	4.36 µM	19.4 µM
CC(C)CNC(=O)c1cnc(NCCCN2CCCC2)nc1NCC1CCCCC1	0.474 µM	> 1.35 µM	> 10 µM
c1ccc(CCc2nc3cccnc3n2C2CCN(C3CCN(Cc4ccccc4)CC3)CC2)cc1	0.153 µM	0.175 µM	81.4 µM
O=C(Nc1ccc(Cl)cc1)c1c2c(nc3ccccc13)-c1ccccc1CC2	0.41 µM	0.338 µM	> 100 µM

Compound	EC50 (Plasmodium falciparum [1])	EC50 (Plasmodium falciparum [2])	CC50 [3]
CCCCCCCC[n+]1c(C)n(CC)c2ccc(Cl)cc21	0.139 µM	0.239 µM	54.9 µM
O=C1C(Cc2ccccc2)N=C2c3ccccc3N=C(SCc3ccc(Cl)cc3)N12 (stereo not drawn)	> 1.25 µM	> 1.05 µM	> 10 µM
CCOC(=O)c1sc(=S)n(-c2ccc(N(C)C)cc2)c1N	> 1.19 µM	> 1.27 µM	> 10 µM
Cc1ccc(O)c(NC(=O)c2cnn3c(C(F)(F)F)cc(-c4ccc(Br)cc4)nc23)c1	7.45 µM	2.48 µM	> 100 µM
O=C(NNC(=O)c1csnn1)c1ccc(Cl)cc1	0.781 µM	1.29 µM	> 100 µM
CCC(C)OC(=O)C1=C(C)NC2=C(C(=O)CC(c3ccc(Cl)cc3)C2)C1c1cccc(O)c1 (stereo not drawn)	1.02 µM	0.147 µM	39.6 µM
Cc1cn2c3ccccc3n(CCN3CCCC3)c2n1	0.995 µM	0.889 µM	60.5 µM
O=C(Nc1ccc(SC(F)(F)F)cc1)Nc1cccnc1N1CCC(C(F)(F)F)CC1	1.77 µM	1.42 µM	39.7 µM
CCOC(=O)C1=C(CC)NC2=C(C(=O)CC(C)(C)C2)C1c1ccccc1F (stereo not drawn)	0.459 µM	0.151 µM	> 100 µM
CC[n+]1c(/C=C/C=C2\N(C)c3ccccc3C2(C)C)n(-c2ccccc2)c2ccc(C)cc21	1.53 µM	1.4 µM	> 10 µM
CCn1nc(/C=C/c2ccccc2)nc2c(=O)n(C)c(=O)nc1-2	> 3.33 µM	> 10 µM	42 µM
C[N+](C)(CC#Cc1ccccc1)CC#Cc1ccccc1	1.93 µM	0.679 µM	> 100 µM
COc1ccc(NC2=C(N3CCCCC3)C(=O)c3ccccc3C2=O)cc1	0.0331 µM	0.035 µM	12.6 µM
O=C1NCCCCC1N(Cc1cccc(Oc2ccccc2)c1)C(=O)c1ccc(F)cc1 (stereo not drawn)	> 1.06 µM	> 1.25 µM	> 10 µM
C[n+]1cccc(/C=C2/c3ccccc3-c3ncccc32)c1	0.809 µM	0.555 µM	> 10 µM
O=C(c1cccc(F)c1)N1CCN(Cc2ccncc2)CC1	> 9.94 µM	2.17 µM	> 100 µM
Cc1cc2cc(C3C(C#N)=C(N)Oc4c3ccc3ccccc43)c(Cl)nc2cc1Cl (stereo not drawn)	0.24 µM	0.629 µM	> 100 µM
COc1ccc(C=NNc2cc(C)nc(-c3ccccc3)n2)cc1OC	8.51 µM	3.3 µM	48.9 µM
C=CCNC(=O)c1cc(OCc2ccccc2)c(OCc2ccccc2)c(OCc2ccccc2)c1	10.8 µM	9.18 µM	> 100 µM
COC(=O)C1=CNC=C(C(=O)OC)C1c1cc(Br)ccc1OC	> 12.2 µM	4.52 µM	> 57.8 µM
Cc1ccc(-n2c(C(C)N(CCc3ccccc3)C(=O)c3cccc(F)c3)nc3ccccc3c2=O)c(C)c1 (stereo not drawn)	> 1.25 µM	0.764 µM	> 10 µM
c1ccc2c(c1)ccc1cc3cccc[n+]3cc12	1.38 µM	0.795 µM	37 µM
CCNC(=S)NC1CC2CCCC(C1)N2CCc1ccccc1 (stereo not drawn)	1.59 µM	1.39 µM	> 100 µM
Cc1ccc(N2C(=O)c3sc4nnc(C)c(=O)n4c3C2=O)cc1	> 0.595 µM	0.315 µM	> 10 µM
COc1cc(C(=O)NCc2ccco2)ccc1OC1CCN(CC(c2ccccc2)c2ccccc2)CC1	0.118 µM	0.0587 µM	> 10 µM
